Patent publication US6555548B2, “Compounds for treating fibromyalgia and chronic fatigue syndrome” (Pharmacia & Upjohn Company, priority 2000, dated 2003)

CN[C@@H]1Cc2cccc3[nH]c(=S)n(c23)C1 gave a melting point of 210 to 213 °C.

Compound CN[C@@H]1Cc2cccc3[nH]c(=S)n(c23)C1.O=C(O)/C=C\C(=O)O has a melting point of 195 to 196 °C.
